This is an account of results in PMC12434071, “Platinum-group metal half-sandwich complexes of 1-(α-D-glucopyranosyl)-4-hetaryl-1,2,3-triazoles: synthesis, solution equilibrium studies, and investigation of their anticancer and antimicrobial activities” (Frontiers in Chemistry, 2025).

Series [1] concerns A2780 cells. Briefly: SRB assay on A2780 cells. Type of series: cell-based. The settings on record: maximal inhibition; 48 h treatment; maximum concentration 100 µM. Here is the method: For MTT assays, 4 × 10^3 A2780 cells were plated into 96-well plates, and for SRB assays, 1.5 × 10^3 A2780 cells were plated into 96-well plates. Cells were treated with the compounds in the concentrations indicated for either 4 h for an MTT assay or for 48 h for an SRB assay. Data are represented as average ± SD, from four biological replicates, with the exception of the MTT dataset of Ir-2b and the SRB datasets of 2b, Ru/Ir-2b, and Ir-3a, which were derived from three biological replicates. Individual assays were performed in duplicate. Values were normalized for vehicle-treated cells, and the absorbance for vehicle-treated cells equals 1. Data are represented as fold change compared to vehicle-treated controls. Normality was assessed using the D’Agostino–Pearson test. Statistical significance was assessed using a two-way ANOVA test followed by Tukey’s post hoc test. For better visibility, normality, transformations, statistical tests, and p values are presented in an MS Excel sheet at https://figshare.com/s/3a0aa60b66f3f746f41e. Color code: black—free ligand (2a,b or 3a), khaki—ruthenium complex (Ru-2a,b or Ru-3a), green—iridium complex (Ir-2a,b or Ir-3a).  FIGURE 7 The ruthenium, osmium, and iridium complexes of ligands 4a, 4b, and 5a are cytostatic on ovarian cancer models with a good therapeutic index. For SRB assays, 1.5 × 10^3 A2780 cells, 1.5 × 10^3 ID8 cells, or 4 × 10^3 primary fibroblasts were plated into 96-well plates. Cells were treated with the compounds in the concentrations indicated for 48 h. Data are represented as average ± SD, from four biological replicates on A2780 and human primary fibroblasts, except in the case of Os complexes, where experiments were performed in three biological replicates. ID8 cells were assessed in three biological replicates. Individual assays were performed in duplicate. Values were normalized for vehicle-treated cells, and the absorbance for vehicle-treated cells equals 1. Normality was assessed using the D’Agostino–Pearson test. Statistical significance was assessed using a two-way ANOVA test followed by Tukey’s post hoc test. For better visibility, normality, transformations, statistical tests, and p values are presented in an MS Excel sheet at https://figshare.com/s/3a0aa60b66f3f746f41e. Color code: black—free ligand (4a,b or 5a), khaki—ruthenium complex (Ru-4a,b), blue—osmium complex (Os-4a,b or Os-5a), green—iridium complex (Ir-4a,b), and red—rhodium complex (Rh-4a,b). An SRB assay measures protein content of cells in correlation with the cell number in an assay well and can therefore be used to assess cell proliferation or long-term cytostasis ([Skehan et al., 1990]). Cells were seeded into 96-well plates the day before the treatment for the assay. Cells were treated with the various compounds for 48 h. Then, the medium was removed, and cells were fixed with 10% trichloroacetic acid. Fixed cells were washed in distilled water three times, followed by staining with SRB (0.4 m/V% dissolved in 1% acetic acid) for 10 min. Stained cells were washed in 1% acetic acid five times; the acetic acid was removed, and the cells were left to dry. Protein-bound SRB was released by adding 100 µL of 10 mM Tris base. Plates were measured in a plate photometer (Thermo Scientific Multiscan GO spectrophotometer, Waltham, MA, United States) at 540 nm. Certain wells were designated to contain vehicle-treated cells on each plate. […] Statistical analysis was performed using version 8.0.1 of GraphPad Prism. Values were tested for normal distribution using the D’Agostino–Pearson or Shapiro–Wilk normality tests. When necessary, values were log-normalized or normalized using the Box–Cox or two-step normalization method ([Box and Cox, 1964]), as indicated in the MS Excel file listing the values at https://figshare.com/s/3a0aa60b66f3f746f41e. […]

Series [2] relates to A2780 cells. Briefly: MTT reduction assay on A2780 cells. The series is classed as cell-based. The settings on record: maximal inhibition; 4 h treatment; maximum concentration 100 µM. On the procedure:
For MTT assays, 4 × 10^3 A2780 cells were plated into 96-well plates, and for SRB assays, 1.5 × 10^3 A2780 cells were plated into 96-well plates. Cells were treated with the compounds in the concentrations indicated for either 4 h for an MTT assay or for 48 h for an SRB assay. Data are represented as average ± SD, from four biological replicates, with the exception of the MTT dataset of Ir-2b and the SRB datasets of 2b, Ru/Ir-2b, and Ir-3a, which were derived from three biological replicates. Individual assays were performed in duplicate. Values were normalized for vehicle-treated cells, and the absorbance for vehicle-treated cells equals 1. Data are represented as fold change compared to vehicle-treated controls. Normality was assessed using the D'Agostino-Pearson test. Statistical significance was assessed using a two-way ANOVA test followed by Tukey's post hoc test. For better visibility, normality, transformations, statistical tests, and p values are presented in an MS Excel sheet at https://figshare.com/s/3a0aa60b66f3f746f41e. Color code: black-free ligand (2a,b or 3a), khaki-ruthenium complex (Ru-2a,b or Ru-3a), green-iridium complex (Ir-2a,b or Ir-3a).  FIGURE 5 The ruthenium, osmium, and iridium complexes of ligands 4a, 4b, and 5a decrease MTT reduction. For MTT assays, 4 × 10^3 A2780 cells, 3 × 10^3 ID8 cells, or 6 × 10^3 human primary fibroblasts were plated into 96-well plates. Cells were treated with the compounds in the concentrations indicated for 4 h. Data are represented as average ± SD, from four biological replicates on A2780, and from three biological replicates on ID8 and human primary fibroblasts. For the datasets of 5a and Os-5a on human primary fibroblasts, the data represent four biological replicates. Individual assays were performed in duplicate. Values were normalized for vehicle-treated cells, and the absorbance for vehicle-treated cells equals 1. Normality was assessed using the D'Agostino-Pearson test. Statistical significance was assessed using a two-way ANOVA test followed by Tukey's post hoc test. For better visibility, normality, transformations, statistical tests, and p values are presented in an MS Excel sheet at https://figshare.com/s/3a0aa60b66f3f746f41e. Color code: black-free ligand (4a,b or 5a), khaki-ruthenium complex (Ru-4a,b), green-iridium complex (Ir-4a,b), blue-osmium complex (Os-4a,b or Os-5a), and red-rhodium complex (Rh-4a,b). An MTT reduction assay measures the activity of mitochondrial complex I and can be used to detect toxicity ([[…] et al., 2016]). The assay was performed in a manner similar to that described by [[…] et al. (2023b)]. Briefly, cells were plated into 96-well plates the day before the assay. Cells were treated with the compounds for 4 h; then, MTT was added to a 0.5 mg/mL final concentration, and cells were incubated at 37°C in a cell incubator for 40-60 min, as a function of the cell line being assessed. The culture medium was removed, the reduced MTT dye was dissolved in dimethylsulfoxide, and plates were measured in a plate photometer (Thermo Scientific Multiscan GO spectrophotometer, Waltham, MA, United States) at 540 nm. Certain wells were designated to contain vehicle-treated cells on each plate. In calculations, the readings for these wells were considered to 1, and all readings were expressed relative to these values. Statistical analysis was performed using version 8.0.1 of GraphPad Prism. Values were tested for normal distribution using the D'Agostino-Pearson or Shapiro-Wilk normality tests. When necessary, values were log-normalized or normalized using the Box-Cox or two-step normalization method ([Box and Cox, 1964]), as indicated in the MS Excel file listing the values at https://figshare.com/s/3a0aa60b66f3f746f41e. The following statistical test, post hoc test, and the level of significance are indicated in the MS Excel file listing the values at https://figshare.com/s/3a0aa60b66f3f746f41e. […]
Background: Formazan colour is commonly taken as a measure of viable cells.

Series [3] has as its system cisplatin-resistant A2780 cells. The settings on record: ref Kacsir et al., 2023a; cited from earlier work.
Series [4] is described as follows: pH-potentiometric titration, stability constants (logβ) of ML complexes. The series is classed as physicochemical. The conditions noted are these: [(η^5-Cp*)Rh]^2+; 0.20 M KCl, 25.0°C. An excerpt: […]. […] Comparing the two metal ion containing systems, the complexation with [(η^6-p-cym)Ru]^2+, starts at a more acidic pH, but hydrolytic processes occur already in the physiological pH range due to the higher affinity of the metal ion to hydrolysis. For the [(η^5-Cp*)Rh]^2+, these processes are shifted towards higher pH; […].
For solution studies, doubly deionized and ultra-filtered water was obtained from a Milli-Q RG (Millipore) water purification system. pH-potentiometric measurements were carried out at a constant ionic strength of 0.20 M KCl and at 25.0°C. Carbonate-free KOH solutions of known concentrations (ca. 0.2 M) were used as titrant. […]. A Mettler Toledo DL50 titrator equipped with a DG114-SC combined glass electrode was used for the pH-potentiometric measurements. […] The titrations were performed in the pH range of 2.0–11.0 in equilibrium-controlled mode, during which the pH equilibrium was assumed to be reached if a change in the measured potential was less than 0.1 mV within 90 s. […] The protonation constants of the ligands and the overall stability constants of the complexes, βp,q,r = [MpHqLr]/[M]^p[H]^q[L]^r (where “M” stands for [(η^5-Cp*)Rh(H2O)3]^2+ and “L” represents the completely deprotonated form of the ligand), were calculated with the aid of the SUPERQUAD ([Gans et al., 1985]) and PSEQUAD ([Zékány and Nagypál, 1985]) computer programs, respectively. […]

The nature of series [5]: pH-potentiometric titration, protonation constants (pKa) of the ligands. The series is classed as physicochemical. The settings on record: 0.20 M KCl, 25.0°C; N-heterocyclic ring of the ligand. Here is the method:
In order to obtain information on the acidbase character of the ligands and on the stoichiometry and stability of the complexes present in aqueous medium, potentiometric titrations were carried out in selected systems. Based on the results, both 3a and 3b, having good enough solubility in water, are capable of releasing one hydrogen ion from the fully protonated forms in the measurable pH range (see Figure 3, “pK”). The calculated pK a values appear in Table 4; these values belong to the N-heterocyclic ring of the ligands. […]. For comparison, the previously prepared β-anomeric pair of 3a, compound 3a-β ([Kacsir et al., 2021]) in Table 4, was also studied.
For solution studies, doubly deionized and ultra-filtered water was obtained from a Milli-Q RG (Millipore) water purification system. pH-potentiometric measurements were carried out at a constant ionic strength of 0.20 M KCl and at 25.0°C. Carbonate-free KOH solutions of known concentrations (ca. 0.2 M) were used as titrant. […]. A Mettler Toledo DL50 titrator equipped with a DG114-SC combined glass electrode was used for the pH-potentiometric measurements. […] The titrations were performed in the pH range of 2.0–11.0 in equilibrium-controlled mode, during which the pH equilibrium was assumed to be reached if a change in the measured potential was less than 0.1 mV within 90 s. […]

For the compound `CC(=O)OC[C@H]1O[C@H](n2cc(-c3ccc4ccccc4n3)nn2)[C@H](OC(C)=O)[C@@H](OC(C)=O)[C@@H]1OC(C)=O` [Complex 2b, 1-(2’,3’,4’,6’-Tetra-O-acetyl-α-D-glucopyranosyl)-4-(quinolin-2-yl)-1,2,3-triazole], the “A2780 SRB max %” value with A2780 cells [1] stood at 22.33%. In addition, the “A2780 MTT max %” value in the series on A2780 cells [2] turned out to be 0%.

Take `N.N.[Cl][Pt][Cl]` [cisplatin]: the half-inhibitory concentration (IC50) in series [3] is 16.5 µM.

In the case of `CC(=O)OC[C@H]1O[C@H](n2cc(-c3ccccn3)nn2)[C@H](OC(C)=O)[C@@H](OC(C)=O)[C@@H]1OC(C)=O` [Complex 2a, 1-(2’,3’,4’,6’-Tetra-O-acetyl-α-D-glucopyranosyl)-4-(pyridin-2-yl)-1,2,3-triazole], the “A2780 SRB max %” value in the series with A2780 cells [1] is 0%. Moreover, the “A2780 MTT max %” value with A2780 cells [2] was found to be 0%.

For the compound `OC[C@H]1O[C@H](n2cc(-c3ccc4ccccc4n3)nn2)[C@H](O)[C@@H](O)[C@@H]1O` [Complex 3b, 1-(α-D-Glucopyranosyl)-4-(quinolin-2-yl)-1,2,3-triazole], in series [4], the “logβ [ML]” value is 5.55 (3). Further, the pK a in series [5] is recorded as 3.56 (1).

What is called IC50 is the concentration at which inhibition is half-maximal.
